The values that follow come from patent US7888061B2, “Method of stabilising or reactivating a creatinine sensor with a divalent manganese ion” (Radiometer Medical ApS, priority 2005, dated 2011).

The target in assay [1] is T1, Creatinine Amidohydrolase (Creatininase) (Pseudomonas putida, UniProt P83772).
T1 sequence (P83772 1-260): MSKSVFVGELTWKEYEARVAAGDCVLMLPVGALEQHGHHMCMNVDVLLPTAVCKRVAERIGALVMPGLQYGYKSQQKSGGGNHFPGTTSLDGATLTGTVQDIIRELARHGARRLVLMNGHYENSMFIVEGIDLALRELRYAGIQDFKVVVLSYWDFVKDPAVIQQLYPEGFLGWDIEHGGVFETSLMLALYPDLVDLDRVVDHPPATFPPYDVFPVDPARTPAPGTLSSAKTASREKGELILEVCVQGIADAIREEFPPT
Particulars: cited from earlier work; for reactivation of the inactive apoenzyme: addition of 0.5 mM, zinc ions removed from creatininase.

Assay [2] has as its system Creatinine Amidohydrolase. Particulars: 1.0 mM solution; cited from earlier work.
Assay [3] has as its target heat-treated creatininase (Pseudomonas putida, UniProt P83772). As to conditions: enzyme assays.
In assay [4] the target is urease (Canavalia ensiformis, UniProt P07374).
The target in assay [5] is creatininase (Pseudomonas putida, UniProt P83772). The method, then:
The following examples are intended to illustrate the invention without limiting the invention. In all of the examples, creatininase from Pseudomonas putida was used, obtained from Roche Diagnostics, Mannheim, Germany.
The stability of the creatinine sensor was tested by observing the sensor responses to calibration solutions containing each of the substrates creatinine and creatine.
The calibration solutions were prepared by dissolving about 200 μM creatinine in the Radiometer Calibration Solution 1 S1720 and about 200 μM creatine in the Radiometer Calibration Solution 2 S1730. These solutions were repeatedly introduced into the apparatus one after the other and sensor responses were obtained.
It is convenient to depict the relation between the creatinine sensor response to creatinine relative to the creatinine sensor response to creatine by the following ratio: R=response to creatinine/response to creatine.
If R is constant, the creatininase activity is stable. A declining value for R indicates an overall loss of creatininase activity.
The same experiment as described above was conducted with five creatinine sensors having a significant initial excess of creatininase. In FIG. 4, R is depicted for this experiment.

For assay [6], the target named is lactate oxidase (Aerococcus viridans, UniProt Q44467).
The target in assay [7] is glucose oxidase (Aspergillus niger, UniProt P13006).

Like-named read-outs stand apart in the source and are kept apart here.

Sequence of lactate oxidase (Q44467 whole entry, species assumed): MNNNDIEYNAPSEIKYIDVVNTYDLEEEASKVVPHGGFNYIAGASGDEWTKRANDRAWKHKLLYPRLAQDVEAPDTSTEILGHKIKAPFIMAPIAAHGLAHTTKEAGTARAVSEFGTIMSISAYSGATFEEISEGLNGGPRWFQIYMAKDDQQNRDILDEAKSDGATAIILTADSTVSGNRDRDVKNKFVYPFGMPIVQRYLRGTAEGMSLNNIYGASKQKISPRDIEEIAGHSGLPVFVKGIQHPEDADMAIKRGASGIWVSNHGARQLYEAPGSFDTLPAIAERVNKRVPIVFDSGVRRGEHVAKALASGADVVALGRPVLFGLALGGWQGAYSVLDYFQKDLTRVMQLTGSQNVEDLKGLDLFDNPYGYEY
Sequence of urease (P07374 whole entry, looked up): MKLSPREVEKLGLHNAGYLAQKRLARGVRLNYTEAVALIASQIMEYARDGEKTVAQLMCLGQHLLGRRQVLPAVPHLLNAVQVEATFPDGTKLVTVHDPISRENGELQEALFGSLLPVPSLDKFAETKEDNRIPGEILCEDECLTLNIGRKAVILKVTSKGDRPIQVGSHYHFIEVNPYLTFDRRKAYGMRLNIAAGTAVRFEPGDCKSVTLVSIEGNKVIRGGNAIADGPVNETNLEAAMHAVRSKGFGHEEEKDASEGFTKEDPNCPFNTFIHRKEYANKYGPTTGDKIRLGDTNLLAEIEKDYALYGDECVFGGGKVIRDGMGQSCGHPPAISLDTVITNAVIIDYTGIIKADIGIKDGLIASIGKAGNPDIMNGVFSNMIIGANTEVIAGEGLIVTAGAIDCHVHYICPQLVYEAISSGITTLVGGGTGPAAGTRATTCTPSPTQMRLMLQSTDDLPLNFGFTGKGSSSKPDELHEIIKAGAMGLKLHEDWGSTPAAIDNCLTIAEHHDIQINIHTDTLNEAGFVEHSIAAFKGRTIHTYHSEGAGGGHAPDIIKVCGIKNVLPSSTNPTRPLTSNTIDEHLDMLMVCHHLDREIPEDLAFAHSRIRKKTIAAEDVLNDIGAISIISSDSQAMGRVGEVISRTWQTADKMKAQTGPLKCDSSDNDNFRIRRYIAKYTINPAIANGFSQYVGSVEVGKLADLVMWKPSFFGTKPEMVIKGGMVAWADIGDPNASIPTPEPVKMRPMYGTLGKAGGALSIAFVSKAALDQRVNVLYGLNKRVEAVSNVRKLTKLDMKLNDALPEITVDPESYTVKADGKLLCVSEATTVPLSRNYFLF
Sequence of glucose oxidase (P13006 17-605, species assumed): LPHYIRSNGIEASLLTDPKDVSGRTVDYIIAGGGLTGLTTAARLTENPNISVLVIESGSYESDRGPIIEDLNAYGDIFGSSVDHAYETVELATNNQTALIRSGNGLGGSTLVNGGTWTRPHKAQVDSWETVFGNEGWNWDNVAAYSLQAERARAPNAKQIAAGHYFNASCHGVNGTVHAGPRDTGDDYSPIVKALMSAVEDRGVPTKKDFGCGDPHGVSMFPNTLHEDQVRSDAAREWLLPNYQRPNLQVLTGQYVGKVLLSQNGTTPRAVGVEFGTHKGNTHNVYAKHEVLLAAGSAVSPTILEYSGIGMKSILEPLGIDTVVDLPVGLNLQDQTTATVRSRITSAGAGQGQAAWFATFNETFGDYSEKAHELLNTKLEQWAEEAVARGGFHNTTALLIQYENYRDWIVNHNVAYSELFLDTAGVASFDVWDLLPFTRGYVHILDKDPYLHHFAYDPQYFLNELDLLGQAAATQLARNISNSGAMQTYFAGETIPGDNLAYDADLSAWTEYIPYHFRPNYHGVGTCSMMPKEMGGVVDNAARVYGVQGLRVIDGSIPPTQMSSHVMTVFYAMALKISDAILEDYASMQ

Take `[Ca+2]` [Ca]: the “inhibition of the activity of creatininase” value (shortened to “inhibition”) in assay [1] (purified, heat-treated enzyme) is recorded as “inhibit slightly”.
As to `[Co+2]` [Co], the “reactivation of the inactive apoenzyme” value in assay [1] is listed as “reactivated”. In addition, the “inhibition” value in assay [1] (purified, heat-treated enzyme) is given as “inhibit slightly”.
As for `O=C(O)CN(CCN(CC(=O)O)CC(=O)O)CC(=O)O` [EDTA, ethylenediamine tetraacetic acid], the “inhibition” value in assay [1] was “only slight inhibition”.
On to `[Fe+2]` [Fe], for which the “reactivation of the inactive apoenzyme” value in assay [1] is on record as “reactivated”. Also, the “inhibition” value in assay [1] (purified, heat-treated enzyme) is given as “inhibit slightly”.
On to `[Mg+2]` [Mg], for which the “reactivation of the inactive apoenzyme” value in assay [1] is listed as “reactivated”. In assay [1] (purified, heat-treated enzyme), the “inhibition” value is listed as “inhibit slightly”.
With `[Cl][Mn][Cl]` [MnCl2], the “reactivation of metal ion depleted creatininase” value in assay [2] is “reactivated”.
Regarding `[Ni+2]` [Ni], the “reactivation of the inactive apoenzyme” value in assay [1] is on record as “reactivated”. For the same compound, the “inhibition” value in assay [1] (purified, heat-treated enzyme) was “inhibit slightly”.
For `[Zn+2]` [Zn], the “reactivation of the inactive apoenzyme” value in assay [1] was “reactivated”. Moreover, in assay [1] (purified, heat-treated enzyme), the “inhibition” value is on record as “inhibit slightly”.
On to `[Mn+2]` [divalent manganese ion], for which, in assay [3], the “effect on heat-treated creatininase” value is reported as “favourable effect”. Further, in assay [4], the deactivation of urease entry was “not to deactivate”. The “R = response to creatinine/response to creatine (relative sensor response)” value is recorded as “approximately 0.8” in assay [5] (2 μM in Rinse Solution for 5½ days after 2¾ days without, two sensors with nearly no initial excess of creatininase, FIG. 3) and “approximately 1.3” in assay [5] (10 μM in Rinse Solutions after 18 days without (R had decreased to 0.9), five sensors with significant initial excess of creatininase, FIG. 4). Also, the activation of creatininase result in assay [5] (concentrations of about 0.01 to about 150 μM, without adverse effect on the other enzymes of the dual sensor system) is “activate creatininase”. In addition, the “time for which the sensor response level was maintained” value in assay [5] (continuous treatment at about 2 μM, FIG. 3) is listed as “at least 5 days”; in assay [5] (continuous treatment at about 10 μM, FIG. 4) it was “at least 5 days”. Further, in assay [1], the “reactivation of the inactive apoenzyme” value was “reactivated”. Besides, the “inhibition” value in assay [1] (purified, heat-treated enzyme) was “inhibit slightly”. Moreover, the “deactivation of lactate oxidase” value in assay [6] is recorded as “not to deactivate”. For the same compound, the “deactivation of glucose oxidase” value in assay [7] is given as “not to deactivate”.
